Source: US9981918B2, “Kynurenine-3-monooxygenase inhibitors, pharmaceutical compositions, and methods of use thereof” (CHDI Foundation, Inc., priority 2011, dated 2018)

Tested on: KMO
Assay: KMO inhibition: L-Kynurenine hydroxylation to 3-Hydroxy-Kynurenine monitored by LC/MS
Format: biochemical
Conditions: compound at 10 uM; footnote: some portion of activity of amides may be due to contribution of acid precursor
Description: A generalized procedure for monitoring L-Kynurenine (KYN) hydroxylation to form product 3-Hydroxy-Kynurenine (30H-KYN) by LC/MS is described below. Product is quantified by multiple reaction monitoring using MS.
A method of monitoring L-Kynurenine (KYN) hydroxylation to form product 3-Hydroxy-Kynurenine (30H-KYN) by LC/MS is described below. Product is quantified by multiple reaction monitoring.
• Compound: Stock concentrations: 10 mM in 100% DMSO • Enzyme: KMO enzyme prepared at Evotec via mitochondria isolation from CHO-GST HIS KMO cells • Substrate: L-Kynurenine (Sigma: Cat# K3750) • [stock concentration: 10 mM in 100 mM potassium phosphate buffer, pH 7.4]
A method of monitoring L-Kynurenine (KYN) hydroxylation to form 3-Hydroxy-Kynurenine (30H-KYN) by LC/MS is described. Product is quantified by multiple reaction monitoring (MRM method).

CCC(C)Oc1ccc(-c2ccnc(C(=O)O)c2)cc1Cl (stereo in doubt) [listing 1 of 2 here]
% Inhibition at 10 uM*: 50%

CCC(C)Oc1ccc(-c2ccnc(C(=O)O)c2)cc1Cl (stereo in doubt) [listing 2 of 2 here]
% Inhibition at 10 uM*: 82%

CCC(C)Oc1ccc(-c2cc(C(=O)O)ncn2)cc1Cl (stereo in doubt) [6-(4-(R)-sec-Butoxy-3-chloro-phenyl)-pyrimidine-4-carboxylic acid]
% Inhibition at 10 uM*: 100%

CCC(C)Oc1ccc(-c2cc(C(=O)O)ncn2)cc1Cl (stereo in doubt) [6-(4-(S)-sec-Butoxy-3-chloro-phenyl)-pyrimidine-4-carboxylic acid]
% Inhibition at 10 uM*: 100%

O=C(O)c1cc(-c2ccc(OC3CC3)c(Cl)c2)ccn1 [4-(3-Chloro-4-cyclopropoxy-phenyl)-pyridine-2-carboxylic acid]
% Inhibition at 10 uM*: 100%

CC(C)Oc1ccc(-c2ccnc(C(=O)O)c2)cc1Cl [4-(3-Chloro-4-isopropoxy-phenyl)-pyridine-2-carboxylic acid]
% Inhibition at 10 uM*: 80%

O=C1OCCc2c1ncnc2-c1ccc(OC2CC2)c(Cl)c1 [4-(3-chloro-4-cyclopropoxyphenyl)-5H,6H,8H-pyrano[3,4-d]pyrimidin-8-one]
% Inhibition at 10 uM*: 100%

O=C1OCc2c1ncnc2-c1ccc(OC2CC2)c(Cl)c1 [4-(3-chloro-4-cyclopropoxyphenyl)-5H,7H-furo[3,4-d]pyrimidin-7-one]
% Inhibition at 10 uM*: 100%

O=C(O)c1cc(-c2ccc3c(c2)OCO3)ncn1 [6-(2H-1,3-benzodioxol-5-yl)pyrimidine-4-carboxylic acid]
% Inhibition at 10 uM*: 101%

Nc1cc(-c2cc(C(=O)O)ncn2)ccc1Cl [6-(3-Amino-4-chloro-phenyl)-pyrimidine-4-carboxylic acid]
% Inhibition at 10 uM*: 101.01%

O=C(O)c1cc(-c2ccc(OC3CC3)c(Cl)c2)ncn1 [6-(3-Chloro-4-cyclopropoxy-phenyl)-pyrimidine-4-carboxylic acid]
% Inhibition at 10 uM*: 100%

Cc1nc(C(=O)O)cc(-c2ccc(OC(C)C)c(Cl)c2)n1 [6-(3-Chloro-4-isopropoxy-phenyl)-2-methyl-pyrimidine-4-carboxylic acid]
% Inhibition at 10 uM*: 70%

CC(C)c1ccc(-c2cc(C(=O)O)ncn2)cc1Cl [6-(3-Chloro-4-isopropyl-phenyl)-pyrimidine-4-carboxylic acid]
% Inhibition at 10 uM*: 100%

CC(C)c1ccc(-c2cc(C(=O)O)ncn2)cc1F [6-(3-Fluoro-4-isopropyl-phenyl)-pyrimidine-4-carboxylic acid]
% Inhibition at 10 uM*: 85%

Cc1nc(C(=O)O)cc(-c2ccc(C)c(F)c2)n1 [6-(3-Fluoro-4-methyl-phenyl)-2-methyl-pyrimidine-4-carboxylic acid]
% Inhibition at 10 uM*: 96%

O=C(O)c1cc(-c2ccc(C(=O)C3CC3)c(Cl)c2)ncn1 [6-(3-chloro-4-cyclopropanecarbonylphenyl)pyrimidine-4-carboxylic acid]
% Inhibition at 10 uM*: 101%

O=C(O)c1ncnc(-c2ccc(OC3CC3)c(Cl)c2)c1CO [6-(3-chloro-4-cyclopropoxyphenyl)-5-(hydroxymethyl)pyrimidine-4-carboxylic acid]
% Inhibition at 10 uM*: 100%

Cc1c(C(=O)O)ncnc1-c1ccc(OC2CC2)c(Cl)c1 [6-(3-chloro-4-cyclopropoxyphenyl)-5-methylpyrimidine-4-carboxylate]
% Inhibition at 10 uM*: 100%

Cc1nc2c(Cl)cc(-c3cc(C(=O)O)ncn3)cc2o1 [6-(4-chloro-2-methyl-1,3-benzoxazol-6-yl)pyrimidine-4-carboxylic acid]
% Inhibition at 10 uM*: 102%

O=C(O)c1cc(-c2cc(Cl)c3occc3c2)ncn1 [6-(7-Chloro-benzofuran-5-yl)-pyrimidine-4-carboxylic acid]
% Inhibition at 10 uM*: 100%

O=C(O)c1cc(-c2cc(Cl)c3c(c2)CCO3)ncn1 [6-(7-chloro-2,3-dihydro-1-benzofuran-5-yl)pyrimidine-4-carboxylic acid]
% Inhibition at 10 uM*: 102%

O=C(O)c1cc(-c2cc(Cl)c3oc(C4CC4)nc3c2)ncn1 [6-(7-chloro-2-cyclopropyl-1,3-benzoxazol-5-yl)pyrimidine-4-carboxylic acid]
% Inhibition at 10 uM*: 100%

Cc1nc2cc(-c3cc(C(=O)O)ncn3)cc(Cl)c2o1 [6-(7-chloro-2-methyl-1,3-benzoxazol-5-yl)pyrimidine-4-carboxylic acid]
% Inhibition at 10 uM*: 102%

Cn1c(=O)oc2c(Cl)cc(-c3cc(C(=O)O)ncn3)cc21 [6-(7-chloro-3-methyl-2-oxo-2,3-dihydro-1,3-benzoxazol-5-yl)pyrimidine-4-carboxylic acid]
% Inhibition at 10 uM*: 100%

O=C(O)c1cc(-c2cc(Cl)c3c(c2)CCCO3)ncn1 [6-(8-Chloro-chroman-6-yl)-pyrimidine-4-carboxylic acid]
% Inhibition at 10 uM*: 100%

O=C(O)c1cc(-c2cc(Cl)c3c(c2)CCCN3)ncn1 [6-(8-chloro-1,2,3,4-tetrahydroquinolin-6-yl)pyrimidine-4-carboxylate]
% Inhibition at 10 uM*: 100%

CN1CCCc2cc(-c3cc(C(=O)O)ncn3)cc(Cl)c21 [6-(8-chloro-1-methyl-1,2,3,4-tetrahydroquinolin-6-yl)pyrimidine-4-carboxylic acid]
% Inhibition at 10 uM*: 100%

O=C([O-])c1cc(-c2cc(Cl)c3ncccc3c2)ncn1.[Na+] [6-(8-chloroquinolin-6-yl)pyrimidine-4-carboxylate]
% Inhibition at 10 uM*: 100%

O=C(O)c1cc(-c2cc(Cl)c3nccnc3c2)ncn1 [6-(8-chloroquinoxalin-6-yl)pyrimidine-4-carboxylic acid]
% Inhibition at 10 uM*: 102%

O=C(O)c1cc(-c2ccc3ncccc3c2)ncn1 [6-Quinolin-6-yl-pyrimidine-4-carboxylic acid]
% Inhibition at 10 uM*: 100%

CC(Oc1ccc(-c2cc(C(=O)O)ncn2)cc1Cl)C(F)(F)F (stereo not drawn) [6-[3-Chloro-4-(2,2,2-trifluoro-1-methyl-ethoxy)-phenyl]-pyrimidine-4-carboxylic acid]
% Inhibition at 10 uM*: 94%

O=C(O)c1cc(-c2ccc(OCCN3CCCCC3)c(Cl)c2)ncn1 [6-[3-Chloro-4-(2-piperidin-1-yl-ethoxy)-phenyl]-pyrimidine-4-carboxylic acid]
% Inhibition at 10 uM*: 90%

O=C(O)c1cc(-c2ccc(OC3CCNC3)c(Cl)c2)ncn1 (stereo not drawn) [6-[3-Chloro-4-(pyrrolidin-3-yloxy)-phenyl]-pyrimidine-4-carboxylic acid]
% Inhibition at 10 uM*: 80%

COC(C)c1ccc(-c2cc(C(=O)O)ncn2)cc1Cl (stereo not drawn) [6-[3-chloro-4-(1-methoxyethyl)phenyl]pyrimidine-4-carboxylic acid]
% Inhibition at 10 uM*: 101%

O=C(O)c1cc(-c2ccc(NC3CC3)c(Cl)c2)ncn1 [6-[3-chloro-4-(cyclopropylamino)phenyl]pyrimidine-4-carboxylic acid]
% Inhibition at 10 uM*: 101%

COCc1ccc(-c2cc(C(=O)O)ncn2)cc1Cl [6-[3-chloro-4-(methoxymethyl)phenyl]pyrimidine-4-carboxylic acid]
% Inhibition at 10 uM*: 105%

CSc1ccc(-c2cc(C(=O)O)ncn2)cc1Cl [6-[3-chloro-4-(methylsulfanyl)phenyl]pyrimidine-4-carboxylic acid]
% Inhibition at 10 uM*: 103%

C[S+]([O-])c1ccc(-c2cc(C(=O)O)ncn2)cc1Cl (stereo not drawn) [6-[3-chloro-4-(methylsulfinyl)phenyl]pyrimidine-4-carboxylic acid]
% Inhibition at 10 uM*: 100%

CS(=O)(=O)c1ccc(-c2cc(C(=O)O)ncn2)cc1Cl [6-[3-chloro-4-(methylsulfonyl)phenyl]pyrimidine-4-carboxylic acid]
% Inhibition at 10 uM*: 100%

O=C(Nc1cccnc1)c1cc(-c2ccc(Cl)c(OC3CCOC3)c2)ncn1 (stereo not drawn) [6-[4-Chloro-3-(tetrahydro-furan-3-yloxy)-phenyl]-pyrimidine-4-carboxylic acid pyridin-3-ylamide]
% Inhibition at 10 uM*: 88.39%

CN(C)Cc1ccc(-c2cc(C(=O)O)ncn2)cc1Cl [6-{3-chloro-4-[(dimethylamino)methyl]phenyl}pyrimidine-4-carboxylic acid]
% Inhibition at 10 uM*: 65%

O=C(O)c1cc(-c2ccc(C(O)C3CC3)c(Cl)c2)ncn1 (stereo not drawn) [6-{3-chloro-4-[cyclopropyl(hydroxy)methyl]phenyl}pyrimidine-4-carboxylic acid]
% Inhibition at 10 uM*: 90%

CN(c1ccc(-c2cc(C(=O)O)ncn2)cc1Cl)C1CC1 [6-{3-chloro-4-[cyclopropyl(methyl)amino]phenyl}pyrimidine-4-carboxylic acid]
% Inhibition at 10 uM*: 96%

O=S(=O)(Nc1cc(-c2ccc(OC3CC3)c(Cl)c2)ncn1)c1ccccc1F [N-[6-(3-chloro-4-cyclopropoxyphenyl)pyrimidin-4-yl]-2-fluorobenzene-1-sulfonamide]
% Inhibition at 10 uM*: 96%

O=S(=O)(Nc1cc(-c2ccc(OC3CC3)c(Cl)c2)ncn1)c1ccc(OC(F)(F)F)cc1 [N-[6-(3-chloro-4-cyclopropoxyphenyl)pyrimidin-4-yl]-4-(trifluoromethoxy)benzene-1-sulfonamide]
% Inhibition at 10 uM*: 88%

O=S(=O)(Nc1cc(-c2ccc(OC3CC3)c(Cl)c2)ncn1)c1ccc(F)cc1 [N-[6-(3-chloro-4-cyclopropoxyphenyl)pyrimidin-4-yl]-4-fluorobenzene-1-sulfonamide]
% Inhibition at 10 uM*: 98%

O=S(=O)(Nc1cc(-c2ccc(OC3CC3)c(Cl)c2)ncn1)c1ccccc1 [N-[6-(3-chloro-4-cyclopropoxyphenyl)pyrimidin-4-yl]benzenesulfonamide]
% Inhibition at 10 uM*: 73%

O=S(=O)(Nc1cc(-c2ccc(OC3CC3)c(Cl)c2)ncn1)C1CC1 [N-[6-(3-chloro-4-cyclopropoxyphenyl)pyrimidin-4-yl]cyclopropanesulfonamide]
% Inhibition at 10 uM*: 33%
